Assay results taken from US20150366191A1, “ANTIMICROBIAL METHOD BY BLOCKING MANNITOL METABOLISM AND ANTIMICROBIAL COMPOSITION CONTAINING MANNITOL METABOLIC INHIBITOR” (Research & Business FOUNDATION SUNGKYUNKWAN UNIVERSITY, priority 2014, published 2015).

Legend:
M1PDH = M1PDH (Staphylococcus aureus, UniProt P99140); experiment: in vitro M1PDH enzymatic assay (NADH optical density at 340 nm); type: biochemical; conditions: fructose-6-phosphate and NADH, or Mtl-1-phosphate and NAD as substrates
From the text: To measure an in vitro M1PDH enzyme activity, a change in concentration of NADH according to an enzyme activity was observed through a change in optical density at 340 nm using fructose-6-phosphate and NADH, or Mtl-1-phosphate and NAD as substrates.

[1] = tested on: bacteria infected into macrophages; experiment: macrophage infection model, viability of bacteria in the presence of mannitol; type: cell-based, Staphylococcus aureus; conditions: compound and mannitol used together; after 18 hours of infection
From the text: In addition, to confirm an inhibitory effect in a host cell, a macrophage infection model was used.

bacteria [2] = experiment: viability of bacteria by optical density at 600 nm; type: cell-based; conditions: change in concentration of the compound; OD 600 nm
mannitol metabolism = mannitol metabolism inhibition, phenol red colour change in mannitol medium; type: cell-based; conditions: medium containing 27 mM of mannitol and phenol red
Procedure: When bacteria were cultured in a medium containing 27 mM of mannitol and phenol red, the mannitol was metabolized to produce fructose and reduce pH of the medium, thereby changing a color of the phenol red to yellow. However, since the phenol red was not changed in color to keep the medium red by inhibiting the mannitol metabolism, an inhibitor showing an mannitol metabolism inhibitory effect was found using such a principle (FIG. 11A).

bacteria [3] = experiment: chemical toxicity assay (growth of bacteria); type: cell-based

| SMILES | inhibition of M1PDH activity (M1PDH) | SA viability in macrophages [1] | viability of bacteria (bacteria [2]) | mannitol metabolism inhibitory effect (mannitol metabolism) | inhibition of growth of bacteria (bacteria [3]) |
| --- | --- | --- | --- | --- | --- |
| Cc1c(O)c(O)cc2c1CC=C1[C@@]2(C)CC[C@@]2(C)C3C[C@](C)(C(=O)O)CC[C@]3(C)CC[C@]12C (stereo partly drawn) [Compound 5, (2R,4aS,6aS,6aS,14aS,14bR)-10,11-dihydroxy-2,4a,6a,6a,9,14a-hexamethyl-3,4,5,6,8,13,14,14b-octahydro-1H-picene-2-carboxylic acid] | inhibiting an activity of M1PDH | decrease in SA viability in a macrophage | decrease in viability | – | – |
| Cc1nn(-c2ccccc2)c2c1C(c1ccc([N+](=O)[O-])cc1)C(C#N)=C(N)O2 (stereo not drawn) [Compound 10, 6-amino-3-methyl-4-(4-nitrophenyl)-1-phenyl-1,4-dihydropyrano[2,3-c]pyrazole-5-carbonitrile] | inhibited M1PDH activity | – | – | inhibiting only the mannitol metabolism | not inhibiting growth of bacteria |
| COc1nc(NC(=O)NS(=O)(=O)c2ccccc2C(F)(F)F)nc(C23CC4CC(CC(C4)C2)C3)n1 [Compound 26, 2-(1-adamantyl)-4-methoxy-6-{[({[2-(trifluoromethyl)phenyl]sulfonyl}amino)carbonyl]amino}-1,3,5-triazine] | inhibited M1PDH activity | – | – | inhibiting only the mannitol metabolism | not inhibiting growth of bacteria |
| Nc1c(-c2ccc3ccccc3n2)c2ccc([N+](=O)[O-])cc2c(=O)n1Cc1ccccc1 [Compound 27, 3-amino-2-benzyl-7-nitro-4-(2-quinolyl)-1,2-dihydroisoquinolin-1-one] | inhibited M1PDH activity | – | – | inhibiting only the mannitol metabolism | not inhibiting growth of bacteria |
| O=C(NC(=O)c1ccc(Oc2ccc(Cl)cc2)c([N+](=O)O)c1)Nc1ccccc1C(F)(F)F [Compound 31, N-[4-(4-chlorophenoxy)-3-nitrobenzoyl]-N′-[2-(trifluoromethyl)phenyl]urea] | inhibited M1PDH activity | – | – | inhibiting only the mannitol metabolism | not inhibiting growth of bacteria |
